In brackets after ≈: the same amount, converted by molar mass. Each block holds one compound with its values, some of them ahead of it.
Key:
Assay in all cases: ≥ marks a high value that may be exact or a test limit, other limits are often not marked, values filed in µg/mL are converted to µM
Aspergillus nidulans = test system: Aspergillus nidulans
Escherichia coli = test system: Escherichia coli
Candida albicans = test system: Candida albicans
Staphylococcus aureus = test system: Staphylococcus aureus
[1] = test system: Porphyromonas gingivalis ATCC 33277
[2] = test system: Escherichia coli ATCC 12014
[3] = test system: Salmonella enterica subsp. enterica serovar Typhimurium ATCC BAA-215
[4] = test system: Enterococcus faecalis OG1X
[5] = test system: Pseudomonas aeruginosa ATCC 10145
Streptococcus gordonii = test system: Streptococcus gordonii
[6] = test system: Enterococcus faecalis FA2-2
[7] = test system: Bacillus subtilis ATCC 11774
[8] = test system: Staphylococcus aureus ATCC 6538
[9] = test system: Staphylococcus aureus ATCC 25023
Vibrio cholerae non-O1 = test system: Vibrio cholerae non-O1
Vibrio cholerae non-O139 = test system: Vibrio cholerae non-O139
[10] = test system: Staphylococcus aureus ATCC 25923
[11] = test system: Staphylococcus epidermidis ATCC 12228
[12] = test system: Escherichia coli ATCC 25922
[13] = test system: Salmonella enterica subsp. enterica serovar Typhi DMST 22842
[14] = test system: Pseudomonas aeruginosa ATCC 27853
[15] = test system: Micrococcus luteus DSM 20030
Escherichia coli D31 = test system: Escherichia coli D31
[16] = test system: Cronobacter sakazakii DPC 6440
[17] = test system: Listeria monocytogenes LO28

SMILES: CC[C@H](C)[C@H](NC(=O)[C@H](CO)NC(=O)[C@@H]1CCCN1C(=O)[C@H](CCCN=C(N)N)NC(=O)[C@H](Cc1c[nH]c2ccccc12)NC(=O)[C@H](Cc1c[nH]c2ccccc12)NC(=O)[C@H](Cc1ccc(O)cc1)NC(=O)[C@H](CCC(N)=O)NC(=O)[C@H](CCCCN)NC(=O)[C@H](CC(C)C)NC(=O)[C@@H]1CCCN1C(=O)[C@@H](N)Cc1cnc[nH]1)C(=O)O [HPLKQYWWRPSI]
MIC (Aspergillus nidulans): 21.9 µM (≈ 35.4 µg/mL) | MIC (Escherichia coli): > 125 µM | MIC (Candida albicans): 11 µM (≈ 17.7 µg/mL) | MIC (Staphylococcus aureus): > 125 µM

SMILES: CC[C@H](C)[C@H](NC(=O)[C@H](CCCCN)NC(=O)[C@H](CCC(=O)O)NC(=O)[C@H](CCCCN)NC(=O)[C@H](CO)NC(=O)[C@H](CCCCN)NC(=O)[C@@H](N)CCCN=C(N)N)C(=O)NCC(=O)N[C@@H](CCCCN)C(=O)N[C@@H](CCC(=O)O)C(=O)N[C@@H](Cc1ccccc1)C(=O)N[C@@H](CCCCN)C(=O)N[C@@H](CCCN=C(N)N)C(=O)N[C@H](C(=O)N[C@H](C(=O)N[C@@H](CCC(N)=O)C(=O)N[C@@H](CCCN=C(N)N)C(=O)N[C@H](C(=O)N[C@@H](CCCCN)C(=O)N[C@@H](CC(=O)O)C(=O)N[C@@H](Cc1ccccc1)C(=O)O)[C@@H](C)CC)C(C)C)[C@@H](C)CC [RKSKEKIGKEFKRIVQRIKDF]
MIC [1]: 4.75 µM (≈ 12.5 µg/mL) | MIC [2]: 0.152 µM (≈ 0.4 µg/mL) | MIC [3]: 19 µM (≈ 50 µg/mL) | MIC [4]: 19 µM (≈ 50 µg/mL) | MIC [5]: ≥ 38 µM | MIC (Streptococcus gordonii): 2.37 µM (≈ 6.25 µg/mL) | MIC [6]: 4.75 µM (≈ 12.5 µg/mL) | MIC [7]: 0.038 µM (≈ 0.1 µg/mL) | MIC [8]: 19 µM (≈ 50 µg/mL)

SMILES: CC(C)C[C@H](NC(=O)[C@H](CC(C)C)NC(=O)[C@H](CC(C)C)NC(=O)[C@H](CC(C)C)NC(=O)[C@H](CC(C)C)NC(=O)[C@H](CCCCN)NC(=O)[C@H](CC(C)C)NC(=O)[C@@H](N)CCCN=C(N)N)C(=O)N[C@@H](CCCN=C(N)N)C(=O)N[C@@H](Cc1c[nH]c2ccccc12)C(N)=O [RLKLLLLLRW]
MIC [9]: 3.02 µM (≈ 4 µg/mL)

SMILES: CC[C@H](C)[C@H](NC(=O)[C@@H](NC(=O)[C@H](CCCCN)NC(=O)[C@@H](NC(=O)[C@H](CCCCN)NC(=O)[C@@H]1CCCN1C(=O)[C@H](CCC(N)=O)NC(=O)[C@H](C)NC(=O)[C@@H](N)Cc1c[nH]c2ccccc12)[C@@H](C)O)C(C)C)C(=O)N1CCC[C@H]1C(=O)N[C@@H](Cc1ccc(O)cc1)C(=O)N[C@H](C(=O)N[C@@H](CCCN=C(N)N)C(=O)N[C@@H](Cc1ccc(O)cc1)C(=O)N[C@@H](CC(C)C)C(=O)O)C(C)C [WAQPKTKVIPYVRYL]
MIC [16]: ≥ 39.1 µM | MIC [17]: ≥ 39.1 µM

Now from value to compound, other results behind:

MIC [10]: > 51.7 µM | MIC [11]: > 51.7 µM | MIC [12]: > 51.7 µM | MIC [13]: ≥ 51.7 µM | MIC [14]: 26.1 µM (≈ 46 µg/mL)
SMILES: NC(=O)[C@H](Cc1c[nH]c2ccccc12)NC(=O)[C@H](Cc1c[nH]c2ccccc12)NC(=O)[C@H](CCCN=C(N)N)NC(=O)[C@H](CCCN=C(N)N)NC(=O)[C@H](Cc1c[nH]c2ccccc12)NC(=O)[C@H](Cc1c[nH]c2ccccc12)NC(=O)[C@H](CCCN=C(N)N)NC(=O)[C@H](Cc1c[nH]c2ccccc12)NC(=O)[C@H](Cc1c[nH]c2ccccc12)NC(=O)[C@@H](N)CCCN=C(N)N [RWWRWWRRWW]
MIC (Vibrio cholerae non-O1): 13.1 µM (≈ 23 µg/mL) | MIC (Vibrio cholerae non-O139): 13.1 µM (≈ 23 µg/mL)

MIC [15]: ≥ 100 µM | MIC (Escherichia coli D31): ≥ 100 µM
SMILES: CC[C@H](C)[C@H](NC(=O)[C@H](Cc1c[nH]c2ccccc12)NC(=O)[C@@H](N)CO)C(=O)N[C@@H](CCCCN)C(=O)N[C@@H](CCCCN)C(=O)N[C@@H](CC(=O)O)C(=O)N[C@@H](CCCCN)C(=O)N[C@@H](Cc1ccccc1)C(=O)N1CCC[C@H]1C(=O)N[C@@H](CO)C(=O)N[C@@H](CO)C(=O)N[C@H](C(=O)NCC(=O)N1CCC[C@H]1C(=O)N[C@@H](Cc1ccc(O)cc1)C(=O)N[C@@H](CC(N)=O)C(=O)N1CCC[C@H]1C(=O)N[C@@H](CC(N)=O)C(=O)N1CCC[C@H]1C(=O)N1CCC[C@H]1C(=O)N1CCC[C@H]1C(=O)N1CCC[C@H]1C(=O)N[C@@H](CCCN=C(N)N)C(=O)N[C@@H](Cc1ccccc1)C(=O)O)[C@@H](C)O [SWIKKDKFPSSTGPYNPNPPPPRF]
